Patent publication US11072588B2, “Barbituric acid derivatives comprising cationic and lipophilic groups” (UNIVERSITETET I TROMSØ—NORGES ARKTISKE UNIVERSITET, priority 2017, dated 2021)
Values after ≈ are worked out from the molar mass of the structure shown.

Assays:
[1] = Determination of haemolytic activity; assay type: cell-based; details: human red blood cells (washed, from heparinized fresh blood); human RBCs, 1 h, 37° C.; read-out: RBC: haemolytic activity against human RBCs (EC50)
Method: Hemolysis was determined using a heparinized fraction (1000 IU/mL) of freshly drawn blood. Blood collected in EDTA containing test tubes (Vacutest®, KIMA, Arzergrande, Italy) was used for determination of the hematocrit (hct). The heparinized blood was washed 3× with pre-warmed PBS and adjusted to a final hct of 4%. Derivatives in DMSO (50 mM) were added to a 96-well polypropylene V-bottom plate (NUNC, Fisher Scientific, Oslo, Norway) and serially diluted. The test concentration range was 500-4 μM with DMSO contents ≤1%. A solution of 1% triton X-100 was used as positive control for 100% hemolysis. As negative control a solution of 1% DMSO in PBS buffer was included. No signs of DMSO toxicity were detected. RBCs (1% v/v final concentration) were added to the well plate and incubated at 37° C. and 800 rpm for 1 h. After centrifugation (5 min, 3000 g), 100 μL of each well were transferred to a 96-well flat bottom plate and absorbance was measured at 545 nm with a microplate reader (VersaMax™, Molecular Devices, Sunnyvale, Calif., USA). The percentage of hemolysis was calculated as the ratio of the absorbance in the derivative-treated and surfactant treated samples, corrected for the PBS background. Three independent experiments were performed and EC50 values are presented as averages.

S. aureus IHT 99040 = test: MIC, multi-resistant clinical isolate; assay type: cell-based, Staphylococcus aureus; details: for selectivity index (EC50/MIC): RBC EC50 / MIC; for MIC: Staphylococcus aureus, IHT99040, read-out: Antimicrobial activity (MIC)
Method: (§1) Working solutions of the test derivatives were prepared with up to 100% DMSO and stored at −20° C. If necessary, the solutions were heated to 40-80° C. before testing to facilitate complete dissolution. Double-distilled water was used in all dilutions prepared. […] A microdilution susceptibility test was used for MIC determination according to Clinical and Laboratory Standards Institute, “Methods for Dilution Antimicrobial Sisceptibility Tests for Bacteria That Graw Aerobically”, Approved Standard M07-A9, edition 2012, with modifications as described by Igumnova et al (Bioorg Med Chem, 2016, 24 (22), 5884-5894).
(§2) Briefly, the bacterial inoculum was adjusted to approximately 2.5-3×10^4 cells/mL in Mueller-Hinton broth (MHB, Difco Laboratories, USA), and incubated in a ratio of 1:1 with test derivatives in polystyrene 96-well flat-bottom microplates (NUNC, Roskilde, Denmark). Positive growth control (without test derivatives) and negative control (without bacteria) were included. The reference antibiotic was oxytetracycline hydrochloride (Sigma Aldrich, Saint Louis, Mo., USA). The microplates were incubated in an EnVision microplate reader (Perkin-Elmer, Turku, Finland) placed in an incubator set to 35° C. for 48 h. The MIC value was defined as the lowest concentration of derivative resulting in no bacterial growth as determined by OD600 measurement. All derivatives were tested in three parallels.
(§3) The MIC was determined as explained above with some exceptions; working solutions of test derivatives were prepared from concentrated DMSO stocks stored at room temperature, the density of the bacterial inoculum was increased 40× to 1-1.2×10^6 cells/mL, enterococci were incubated in Brain Heart Infusion broth (BHIB, Difco Laboratories, USA), the microplates were incubated for 24 h, and the derivatives were tested in four parallels.

S. aureus N315 = test: MIC, multi-resistant clinical isolate; assay type: cell-based, Staphylococcus aureus; details: for selectivity index (EC50/MIC): RBC EC50 / MIC, S. aureus N315; for MIC: Staphylococcus aureus, N315, read-out: Antimicrobial activity (MIC)
Method: as §1, §2, §3

S. aureus NCTC 10442 = test: MIC, multi-resistant clinical isolate; assay type: cell-based, Staphylococcus aureus; details: for selectivity index (EC50/MIC): RBC EC50 / MIC, S. aureus NCTC 10442; for MIC: Staphylococcus aureus, NCTC10442, read-out: Antimicrobial activity (MIC)
Method: as §1, §2, §3

S. aureus strain 85/2082 = test: MIC, multi-resistant clinical isolate; assay type: cell-based, Staphylococcus aureus; details: for selectivity index (EC50/MIC): RBC EC50 / MIC, S. aureus strain 85/2082; for MIC: Staphylococcus aureus, 85/2082, read-out: Antimicrobial activity (MIC)
Method: as §1, §2, §3

S. aureus strain WIS = test: MIC, multi-resistant clinical isolate; assay type: cell-based, Staphylococcus aureus; details: for selectivity index (EC50/MIC): RBC EC50 / MIC, S. aureus strain WIS; for MIC: Staphylococcus aureus, read-out: Antimicrobial activity (MIC)
Method: as §1, §2, §3

E. coli 50739822 = test: MIC, multi-resistant clinical isolate; assay type: cell-based, Escherichia coli; details: for MIC: Escherichia coli, read-out: Antimicrobial activity (MIC); for selectivity index (EC50/MIC): RBC EC50 / MIC
Method: as §1, §2, §3

A. baumanii K12-21 = test: MIC, multi-resistant clinical isolate; assay type: cell-based, Acinetobacter baumannii; details: for MIC: Acinetobacter baumannii, K1221, read-out: Antimicrobial activity (MIC); for selectivity index (EC50/MIC): RBC EC50 / MIC
Method: as §1, §2, §3

A. baumanii K44-35 = test: MIC, multi-resistant clinical isolate; assay type: cell-based, Acinetobacter baumannii; details: for MIC: Acinetobacter baumannii, K4435, read-out: Antimicrobial activity (MIC); for selectivity index (EC50/MIC): RBC EC50 / MIC
Method: as §1, §2, §3

A. baumanii K47-42 = test: MIC, multi-resistant clinical isolate; assay type: cell-based, Acinetobacter baumannii; details: for MIC: Acinetobacter baumannii, K4742, read-out: Antimicrobial activity (MIC); for selectivity index (EC50/MIC): RBC EC50 / MIC
Method: as §1, §2, §3

A. baumanii K55-13 = test: MIC, multi-resistant clinical isolate; assay type: cell-based, Acinetobacter baumannii; details: for MIC: Acinetobacter baumannii, K5513, read-out: Antimicrobial activity (MIC); for selectivity index (EC50/MIC): RBC EC50 / MIC
Method: as §1, §2, §3

A. baumanii K63-58 = test: MIC, multi-resistant clinical isolate; assay type: cell-based, Acinetobacter baumannii; details: A. baumanii K63-58, resistant to colistin; for MIC: Acinetobacter baumannii, K6358, 24 h, read-out: Antimicrobial activity (MIC); for selectivity index (EC50/MIC): RBC EC50 / MIC
Method: as §1, §2, §3

S. epidermidis = test: Anti-biofilm activity (inhibition of biofilm formation); assay type: cell-based; details: Staphylococcus epidermidis, read-out: Anti-biofilm IC50
[2] = system: human metastatic melanoma (A2058, ATCC CRL-11147) cells; test: Anti-cancer activity against A2058 cells; assay type: cell-based; details: A2058, read-out: Anti-cancer IC50
Method: Cytotoxicity of the test compounds was evaluated after 72 hour exposure to human metastatic melanoma (A2058, ATCC CRL-11147) cells.
A2058 cells were grown overnight (2,000 cells/well), and then incubated with the test compounds (range of concentrations) diluted in MEM Earle's supplemented with gentamycin (10 μg/mL), non-essential amino acids (1%), sodium pyruvate (1 mM), L-alanyl-Lglutamine (2 mM), but without FBS (total volume was 100 μl) for […]. Ten μL of CellTiter 96® AQueous One Solution Reagent (Promega, Madison, Wis., USA) was added, and the plates were then further incubated for 1 hour.
Absorbance was measured at 485 nm in a DTX 880 Multimode Detector. Results were calculated as % survival compared to negative (assay media) and positive (Triton X-100; Sigma-Aldrich) controls.

## N=C(N)NCCCCN1C(=O)N(CCCCNC(=N)N)C(=O)C(Cc2ccc(F)c3ccccc23)(Cc2ccc(F)c3ccccc23)C1=O [8(v), 1,1′-(4,4′-(5,5-bis((4-fluoronaphthalen-1-yl)methyl)-2,4,6-trioxodihydropyrimidine-1,3(2H,4H)-diyl)bis(butane-4,1-diyl))diguanidine]
[1]
  EC50 at 1 h: 88 µg/mL (≈ 131 µM)
S. aureus IHT 99040
  selectivity index (EC50/MIC): (44)
  MIC: 2 µg/mL (≈ 2.98 µM)
S. aureus N315
  selectivity index (EC50/MIC): (44)
  MIC: 2 µg/mL (≈ 2.98 µM)
S. aureus NCTC 10442
  selectivity index (EC50/MIC): (44)
  MIC: 2 µg/mL (≈ 2.98 µM)
S. aureus strain 85/2082
  selectivity index (EC50/MIC): (44)
  MIC: 2 µg/mL (≈ 2.98 µM)
S. aureus strain WIS
  selectivity index (EC50/MIC): (44)
  MIC: 2 µg/mL (≈ 2.98 µM)
E. coli 50739822
  MIC: 8 µg/mL (≈ 11.9 µM)
  selectivity index (EC50/MIC): (11)
A. baumanii K12-21
  MIC: 8 µg/mL (≈ 11.9 µM)
  selectivity index (EC50/MIC): (11)
A. baumanii K44-35
  MIC: 8 µg/mL (≈ 11.9 µM)
  selectivity index (EC50/MIC): (11)
A. baumanii K47-42
  MIC: 8 µg/mL (≈ 11.9 µM)
  selectivity index (EC50/MIC): (11)
A. baumanii K55-13
  MIC: 8 µg/mL (≈ 11.9 µM)
  selectivity index (EC50/MIC): (11)
A. baumanii K63-58
  MIC: 8 µg/mL (≈ 11.9 µM)
  selectivity index (EC50/MIC): (11)
S. epidermidis
  IC50: 1 µg/mL (≈ 1.49 µM)
[2]
  IC50: 8 µg/mL (≈ 11.9 µM)

## NCCCCN1C(=O)N(CCCCN)C(=O)C(Cc2ccc(F)c3ccccc23)(Cc2ccc(F)c3ccccc23)C1=O [7(v), 1,3-bis(4-aminobutyl)-5,5-bis((4-fluoronaphtalen-1-yl)methyl)pyrimidin-2,4,6(1H,3H,5H)-trione]
[1]
  EC50 at 1 h: 160 µg/mL (≈ 273 µM)
S. aureus IHT 99040
  selectivity index (EC50/MIC): (20)
  MIC: 8 µg/mL (≈ 13.6 µM)
S. aureus N315
  selectivity index (EC50/MIC): (20)
  MIC: 8 µg/mL (≈ 13.6 µM)
S. aureus NCTC 10442
  selectivity index (EC50/MIC): (20)
  MIC: 8 µg/mL (≈ 13.6 µM)
S. aureus strain 85/2082
  selectivity index (EC50/MIC): (40)
  MIC: 4 µg/mL (≈ 6.82 µM)
S. aureus strain WIS
  selectivity index (EC50/MIC): (20)
  MIC: 8 µg/mL (≈ 13.6 µM)
E. coli 50739822
  MIC: 16 µg/mL (≈ 27.3 µM)
  selectivity index (EC50/MIC): (10)
A. baumanii K12-21
  MIC: 32 µg/mL (≈ 54.5 µM)
  selectivity index (EC50/MIC): (5)
A. baumanii K44-35
  MIC: 32 µg/mL (≈ 54.5 µM)
  selectivity index (EC50/MIC): (5)
A. baumanii K47-42
  MIC: 32 µg/mL (≈ 54.5 µM)
  selectivity index (EC50/MIC): (5)
A. baumanii K55-13
  MIC: 32 µg/mL (≈ 54.5 µM)
  selectivity index (EC50/MIC): (5)
A. baumanii K63-58
  MIC: 16 µg/mL (≈ 27.3 µM)
  selectivity index (EC50/MIC): (10)
S. epidermidis
  IC50: 4 µg/mL (≈ 6.82 µM)
[2]
  IC50: 1 µg/mL (≈ 1.7 µM)

## NCCCCN1C(=O)N(CCCCN)C(=O)C(Cc2cc(C(F)(F)F)cc(C(F)(F)F)c2)(Cc2cc(C(F)(F)F)cc(C(F)(F)F)c2)C1=O [7(vi)]
[1]
  EC50 at 1 h: 183 µg/mL (≈ 253 µM)
S. aureus IHT 99040
  selectivity index (EC50/MIC): (11)
  MIC: 16 µg/mL (≈ 22.1 µM)
S. aureus N315
  selectivity index (EC50/MIC): (11)
  MIC: 16 µg/mL (≈ 22.1 µM)
S. aureus NCTC 10442
  selectivity index (EC50/MIC): (11)
  MIC: 16 µg/mL (≈ 22.1 µM)
S. aureus strain 85/2082
  selectivity index (EC50/MIC): (11)
  MIC: 16 µg/mL (≈ 22.1 µM)
S. aureus strain WIS
  selectivity index (EC50/MIC): (11)
  MIC: 16 µg/mL (≈ 22.1 µM)
E. coli 50739822
  MIC: 16 µg/mL (≈ 22.1 µM)
  selectivity index (EC50/MIC): (11)
A. baumanii K12-21
  MIC: 16 µg/mL (≈ 22.1 µM)
  selectivity index (EC50/MIC): (11)
A. baumanii K44-35
  MIC: 32 µg/mL (≈ 44.3 µM)
  selectivity index (EC50/MIC): (6)
A. baumanii K47-42
  MIC: 32 µg/mL (≈ 44.3 µM)
  selectivity index (EC50/MIC): (6)
A. baumanii K55-13
  MIC: 32 µg/mL (≈ 44.3 µM)
  selectivity index (EC50/MIC): (6)
A. baumanii K63-58
  MIC: 32 µg/mL (≈ 44.3 µM)
  selectivity index (EC50/MIC): (6)
